Consider 28 compounds from PubChem BioAssay AID179 (DTP/NCI, 2004).

The subject of this assay is CEM cells HIV-1 protection, formazan growth assay. The experiment in a line: NCI AIDS Antiviral Assay. The conditions noted are these: for IC50: measured here: growth of uninfected CEM cells. In a few lines: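 Steps: treat uninfected and HIV-1-infected human CEM cells at five drug levels; quantify growth by soluble formazan; retest any compound reaching 50% protection; classify actives from the retest.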

Structures are written as SMILES. Calls of active or inactive are those of the source.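 Rule for the calls: active = compounds giving half or more protection of infected cells from virus-caused growth loss, again on retest; inactive = the rest.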

For `CC1=C(C(=O)NCc2ccccc2)C(c2ccc(Cl)c(Cl)c2)C(C(=O)NCc2ccccc2)=C(C)N1`, the result was inactive.

Regarding `ClCC[N+]12CC[N+](CCCl)(CC1)C2`, the result was inactive.

The EC50 is the concentration needed to bring the measured effect to its halfway point. As a reminder, the IC50 is the concentration that gives 50% inhibition. With `CN(C)c1ccc(-c2c(C#N)c(-c3ccccc3)n(NS(=O)(=O)c3ccccc3)c(=O)c2C#N)cc1`, the EC50 was > 200 µM and the IC50 is 13.2 µM.

Consider `O=C(O)c1c[nH]c2cc(O)ccc2c1=O`, for which the EC50 was > 200 µM and the half-maximal inhibitory concentration (IC50) was > 200 µM.

Consider `N#CCC(=O)N/N=C(/C(=O)Nc1ccccc1)C1C(=O)N(c2ccccc2)N=C1N` (stereo not given), for which the EC50 was > 170 µM and the IC50 is > 170 µM.

As for `O=C1c2cc([N+](=O)[O-])cc3cc([N+](=O)[O-])cc(c23)C(=O)N1CCNCCN1C(=O)c2cc([N+](=O)[O-])cc3cc([N+](=O)[O-])cc(c23)C1=O`, the EC50 is > 29.5 µM and the half-inhibitory concentration (IC50) was 0.0912 µM.

For `Nc1nc(Cl)c(/C=N\O)c(NCC2(CO)CCC2)n1`, the EC50 was > 20 µM and the IC50 was found to be 11.5 µM.

For the compound `COC(=O)[C@@H]1[C@H]2CC[C@]3(C)[C@@H](OC(C)=O)CC[C@H]3[C@@H]2CC[C@H]1C(C)=O`, the EC50 is > 174 µM and the half-inhibitory concentration (IC50) is > 174 µM.

As for `Nc1ccc(C(=O)Nc2ccc(/C=C/c3ccc(NC(=O)c4ccc(N)cc4S(=O)(=O)O)cc3S(=O)(=O)O)c(S(=O)(=O)O)c2)c(S(=O)(=O)O)c1`, the EC50 is 22.4 µM and the IC50 amounted to 89.1 µM.

For `OC[C@@H]1CC#C/C=C\C#CC[C@@H]1CO`, the result was inactive.

As for `Cc1sc(Nc2ccccc2[N+](=O)[O-])c(C#N)c1C`, the EC50 was 15.5 µM and the half-maximal inhibitory concentration (IC50) was > 200 µM.

`COc1ccc2cc3[n+](cc2c1OC)CCc1cc(O)c(O)cc1-3`: the outcome was inactive.

With `CCOC(=O)c1ccc(C(O)CC(=O)OC(C)(C)C)[nH]1` (stereo not given), the EC50 was > 200 µM and the IC50 came to 38 µM.

As to `OC1C2CCC3C2CC(C(O)(c2ccccc2)c2ccccc2)C13` (stereo not given), the EC50 is > 200 µM and the IC50 was 79.4 µM.

On to `CCCCC1c2c([nH]c3ccccc23)C2C(=O)N(c3ccc(OC)cc3)C(=O)C2C1CCC` (stereo not given), for which the EC50 is > 200 µM and the IC50 was 3.55 µM.

With `CC(C)C(=O)CC(Sc1ccc(N)cc1)c1ccccc1` (stereo not given), the EC50 is > 200 µM and the IC50 amounted to 87.1 µM.

With `CC1SC2=NC3=C(c4ccccc4C3=O)C(c3ccccc3Cl)N2C1=O` (stereo not given), the EC50 was > 35.5 µM and the IC50 is > 35.5 µM.

With `COC(=O)C1(C(=O)OC)N=C(C)OC1c1ccccn1` (stereo not given), the EC50 is > 200 µM and the IC50 is > 200 µM.

On to `O=c1c2ccccc2[nH]c2c(Cl)cc(Cl)c(N3CCCCC3)c12`, for which the EC50 was > 200 µM and the half-inhibitory concentration (IC50) is 12.9 µM.

Regarding `CCn1c(=O)c2nc(SC)sc2n(-c2ccc(C)cc2)c1=O`, the outcome was inactive.

Turning to `O=[N+]([O-])c1ccc2c(c1)N([O-])C1(CCCCC1)[N+]2=O`, the EC50 is > 200 µM and the concentration for half-maximal inhibition (IC50) was 3.98 µM.

With `CC1(C)O[C@@H]2C[C@H]3[C@@H]4C[C@H](F)C5=CC(=O)C=C[C@]5(C)[C@@]4(F)[C@@H](O)C[C@]3(C)[C@]2(C(=O)CO)O1`, the EC50 is > 2 µM and the half-maximal inhibitory concentration (IC50) is 0.00741 µM.

`COCCCNC1=C(C#N)C(=O)NC(c2cccc([N+](=O)[O-])c2)S1` (stereo not given): the EC50 was > 269 µM and the IC50 was determined as 39.8 µM.

`CC1CC2C(=O)NC(=O)C2c2[nH]c3ccccc3c21` (stereo not given): the outcome was inactive.

For `CC(C)C(O)C(=O)C(Sc1ccccc1)C(C)C` (stereo not given), the EC50 was > 355 µM and the half-maximal inhibitory concentration (IC50) was determined as 240 µM.

On to `CC12CCC3(C1)[C@H](CC2=O)C[C@@H](OC(=O)c1ccccc1)C1C(C)(C(=O)O)CCC[C@@]13C` (stereo not given in full), for which the EC50 was > 295 µM and the IC50 worked out at 13.5 µM.

Consider `O=[N+]([O-])c1ccc(OC2CC3C4C=CC3C2C4)c([N+](=O)[O-])c1` (stereo not given), for which the EC50 was > 200 µM and the half-maximal inhibitory concentration (IC50) was > 200 µM.

In the case of `CCOC(=O)c1nc(SC)sc1NC(=O)c1ccc(OC)cc1`, the EC50 was 162 µM and the IC50 is > 200 µM.
